Data set [1] deals with Klebsiella pneumoniae strain ATCC BAA-1705. Kind of data set: Galleria mellonella virulence assay (larvae viability). In kind it is in vivo. Conditions: infected G. mellonella larvae. Here is the method: Larvae virulence experiments were performed in the facilities of Pharmaseed LTD (Ness Ziona, Israel). G. larvae were obtained from BioSystems Technologies (Exeter, UK) and stored in the shipment boxes at 15° C. for two weeks or at room temperature for immediate use with no requirement of food. Larvae were randomly selected from a large batch for an approximate weight of 250±25 mg. Larvae were separated from sawdust and selected for plumped, lighter colored worms. Darker colored, dehydrated worms, were discarded. Each treatment group (20 larvae per group) contained 10 larvae placed in a 10 cm empty Petri dish (2 dishes per treatment group), on a filter paper.
Bacterial inoculums were prepared from cultures grown overnight at 37° C. in TSB medium (HyLabs, Israel) and washed with sterile 1×PBS. Bacterial suspension concentration was determined by McFarland (Densicheck plus, Biomerieux) and diluted in sterile PBS to receive 10^9 CFU/mL. Serial dilutions of the bacterial suspensions were made and spots were plated on blood agar plates. The plates were incubated at 37° C. and on the next day CFU was counted in order to determine final injected bacterial concentrations.
Each larva was initially injected with 5×10^5 cells into the proleg. A second injection to the proleg was done with meropenem (10 μg/g), meropenem+DNAzyme (8.52 μg/g) or sterile PBS. […]

In data set [2] the test system is Klebsiella pneumoniae ATCC BAA-1705. Kind of data set: Growth assays / MIC / viability (OD600, CFU) with meropenem. In kind it is cell-based. Here is the method: Cultures were incubated at 37° C. with continuous shaking and the optical density OD600 was recorded every 30 minutes using Ultrospec 10 (biochrom). Viability was tested by serial dilutions (1:100) of the bacterial suspensions and spots were plated on LB plates. The plates were incubated at 37° C. and on the next day CFU was counted to determine culture viability.

Data set [3] deals with Klebsiella pneumoniae (ATCC BAA-1705). Put plainly: KP infected thigh muscle model in neutropenic mice. In kind it is in vivo. Conditions: SC TID, 240 mg/kg meropenem alone or with KPC-337 16, 24 or 32 mg/kg. Here is the method:
Neutropenia induction: The experiments were performed on female ICR mice age 9-10 weeks. At day (−4) neutropenia induction was performed by cyclophosphamide intraperitoneal (IP) injection at 150 mg/kg and a volume of 10 mL/kg. At day (−1) neutropenia maintenance was performed by cyclophosphamide IP injection at 100 mg/kg and a volume of 10 mL/kg.
Bacterial suspension preparation: At day (−4) KP (ATCC® BAA-1705™) bacteria was streaked out from −80° C. glycerol stock onto LB medium and incubated at 37° C. for 20 hours and then stored at 2-8° C. At day (−1) single colonies of the KP (ATCC® BAA-1705™ bacteria) were picked by using an inoculation loop (Greiner, 731175) and suspended in 20 mL Tryptic Soy broth (TSB) (Hylabs, BIO-MO11) in Erlenmeyer and incubated at 37° C. overnight (=starter) with shaking at 180 rpm. In the morning of dosing day, bacterial starter was diluted in fresh TSB (total of 20 mL) and incubated for about 1-3 hours at 37° C. […] Bacterial suspension concentration was determined by McFarland (Densicheck plus, Biomerieux) and diluted in sterile PBS to a concentration of 2.2×10^7 CFU/mL. […]
Bacterial burden determination: Homogenate samples dilutions were plated on LB agar plates at various dilutions to determine the colony forming units (CFUs). Plates were incubated overnight (at 37° C.), and bacterial burden was calculated and expressed as CFUs/gram of tissue.

The subject of data set [4] is Klebsiella pneumoniae. Put plainly: Lung ex-vivo infection model (mouse lung punches, CFU). It is filed as cell-based. Conditions: sub-toxic meropenem alone or with DNAzyme/scramble; 24 hours. Here is the method:
Lungs were harvested from 5-10 mice (C57BL/6, 6-8 weeks old) and placed in petri dishes containing DMEM 5% FCS. The tissue was divided into circular pieces 3 mm in diameter with a biopsy punch and transferred to poly-propanol tubes with 3 ml DMEM. DMEM was applied with meropenem and DNAzymes, as indicated. To each respective tube 10 μl of mid-logarithmic Klebsiella pneumoniae culture was added—with three technical repeats for each condition. The plates were incubated at 37° C. for approximately 1 days (24 hours), washed twice with PBS.
For CFU of bacteria infecting ex vivo tissue culture: individual punches or their growth media were collected, Punches were resuspended in 1 ml PBS (Biological Industries), and free-living bacteria were pelleted and resuspended in PBS at the same volume. Samples were thoroughly vortexed (5 min). The samples were then mildly manually crushed using 1.5 ml pestle. In all cases, to determine the number of viable cells, samples were serially diluted in PBS, plated on LB plates, and colonies were counted after incubation at 37° C. overnight.

For data set [5], the system named is bla-KPC RNA transcripts. Put plainly: Bla-KPC quantification from bacterial cells (qPCR). It is filed as cell-based. Conditions: DNAzyme 1.25 μM with sub-toxic meropenem (128 μg/ml), 20 minutes; vs untreated control. Here is the method:
Total RNA was extracted from each sample using RNeasy Mini Kit (Qiagen), according to the manufacturer's instructions. The concentration, purity, and integrity of total RNA was determined using NanoDrop and gel electrophoresis. cDNA synthesis was performed using iScript™ cDNA synthesis (Bio-Rad) according to the manufacturer's instructions. Equal amounts of total RNA (1000 ng/20 μL) were reverse-transcribed in all samples. Reactions were incubated in a CFX96 Touch Real-Time PCR detection system (Bio-Rad) by the following program: 25° C. for 5 minutes, 46° C. for 20 minutes, 95° C. for 60 seconds. Bla-KPC expression was determined by qPCR, with primers designed using NCBI primer-BLAST. qPCR analysis was performed using the iTaq Universal SYBR Green Supermix (Bio-Rad) according to the manufacturer's instructions, in a CFX96 system by the following program: 95° C. for 3 minutes, 39 cycles of 95° C. for 10 seconds and 55° C. for 30 seconds. Melt curves were generated for each sample by heating PCR amplicons from 65° C. to 95° C. with a gradual increase of 0.5° C./0.5 s.
A general note: In qPCR the cycle at which signal appears reflects the starting amount.

The test system of data set [6] is β-lactamase. Conditions: DNAzyme 1.25 M (so in the source) with 128 μg/ml meropenem, 1 h; vs untreated control.
Experimental: Bacterial strains were streaked from frozen LB+glycerol stocks onto LB agar plates and incubate for 24 hours at 37° C. Single colonies were grown overnight at 37° C. in 3 ml of LB. Cultures were diluted 1:1000 in 2 ml LB supplemented with 128 μg/ml meropenem and DNAzyme were added to a final concentration of 1.25 M. Cultures were incubated at 37° C. with continuous shaking for 1 h. Measurement of the β-lactamase activity assay was done using colorimetric kit (abcam), according to the manufacture's protocol.
In data set [7] the test system is HT-29 cells. In kind it is cell-based. Conditions: HT-29 human colorectal adenocarcinoma cells, 72 hours; read-out: IC50 of toxicity. Here is the method:
HT-29 cells (ATCC) were seeded in 24-well plates at 200,000 cells per well. DNAzyme were added to the medium at different concentrations. After 72 hours, PrestoBlue reagent (A13262, Life Technologies Ltd.) was added as a cell viability indicator.

pIC50: −log10 of the molar value. {3CholTEG} = cholesteryl-TEG conjugate

What is called MIC is the smallest concentration in the dilution series that meets the test's criterion for growth inhibition. A word on the pIC50: it is −log10 of the IC50, conventionally taken in molar units.

On to `C[C@@H](O)[C@H]1C(=O)N2C(C(=O)O)=C(S[C@@H]3CN[C@H](C(=O)N(C)C)C3)[C@H](C)[C@H]12` [meropenem, reference compound], for which the “reduction of the viability of the larvae” value in data set [1] (sub-toxic meropenem 10 μg/g alone or with scramble) is reported as 40%. Besides, in data set [2] (Klebsiella pneumoniae, ATCCBAA1705, without DNAzyme), the MIC turned out to be 256 µg/mL. In data set [3], the “reduction of bacterial load in the infection site” value is on record as “slightly reduced the bacterial load”. Further, in data set [4], the “reduction of capacity of the bacteria to infect and colonize lung tissue (bacterial load in the tissue)” value is listed as “did not reduced the bacterial load”; the “reduction of the free-living cells that remained in the growth media” value is “did not reduced the bacterial load”.
On to “GCCTGTTGggctagctacaacgaCAGATATTT/3CholTEG/ (GCCTGTTGGGCTAGCTACAACGACAGATATTT; 3' {3CholTEG}, sugars by position and backbone not given here) [KPC-337, DNAzyme targeting bla carbapenemase of Klebsiella pneumoniae]”, for which the “reduction of transcript levels of bla-KPC” value in data set [5] is “two fold”. The larvae viability in data set [1] (sub-toxic meropenem 10 μg/g with DNAzyme (8.52 μg/g)) is listed as 100%. The “reduction of β-lactamase activity” value in data set [6] is 70%. Besides, the “growth inhibitory effect (optical density)” value in data set [2] (combination of subtoxic meropenem concentration and DNAzyme) is recorded as “complete arrest of growth”. For the same molecule, the “effect on viability of the bacterial cells (cell counts over time)” value in data set [2] (combined treatment of meropenem and DNAzyme) was “bactericidal”. The “reduction of MIC levels” value in data set [2] (meropenem MIC with vs without DNAzyme) is given as “two fold”. In addition, the MIC of meropenem in data set [2] (with addition of DNAzyme KPC-337) worked out at 128 µg/mL. In addition, the “reduction of bacterial load in the infection site” value in data set [3] was 2-3 log fold. In addition, in data set [4], the “reduction of capacity of the bacteria to infect and colonize lung tissue (bacterial load in the tissue)” value was 1.5-2 fold; the “reduction of the free-living cells that remained in the growth media” value was 1-1.5 fold change. For the same molecule, the pIC50 in data set [7] was 4.70.

The values above are taken from patent publication US20230416750A1, “CATALYTIC SEQUENCE BASED METHODS OF TREATING OR PREVENTING BACTERIAL INFECTIONS” (priority 2020, published 2023).
